Earlier results as cited in patent US20200225249A1, “COMPOSITIONS AND METHODS FOR THE DIAGNOSIS AND TREATMENT OF DISEASES OF THE LIVER” (Viscient Biosciences, Inc., priority 2019, published 2020).

Experiments:
[1] = tested on: primary neurons and astrocytes; settings: Braidy et al, 2011
NASH patients = settings: clinical trial; Laurin J, et al., 1996
QPRT = settings: rat hepatocytes; Shin M, et al., 1999
rat hepatocytes = settings: Shin M, et al., 1999

SMILES	cell viability [1]	symptoms of NASH patients (NASH patients)	QPRT expression (QPRT)	NAD+ levels (rat hepatocytes)
O=C(O)c1ccccc1C(=O)O [Phthalic acid, 1,2-Benzenedicarboxylic acid]	reduced cell viability	–	–	–
CCOC(=O)C(C)(C)Oc1ccc(Cl)cc1 [Clofibrate]	–	failed to improve the symptoms	stimulates QPRT expression	increases NAD+ levels
